Reference: patent US20130310387A1, “Monocyclic Heteroaryl Cycloalkyldiamine Derivatives” (NOVARTIS AG, priority 2012, published 2013)

Tests used:
[1] = target: Syk (2-635) (KSYK_HUMAN, P43405) (Homo sapiens, UniProt P43405); assay: Syk enzyme assay (chip based microfluidic mobility shift assay); format: biochemical; details: 4 μM ATP, 4 nM Syk, 60 minutes at 30° C.
Protocol: A number of compounds of the present invention were assayed in a chip based microfluidic mobilitiy shift assay. All assays were performed in 384 well microtiter plates. Each assay plate contained 8-point serial dilutions for 40 test compounds, as well as four 8-point serial dilutions of staurosporine as reference compound, plus 16 high- and 16 low controls. Liquid handling and incubation steps were done on a Thermo CatX workstation equipped with a Innovadyne Nanodrop Express. Between pipetting steps, tips were cleaned in wash cycles using wash buffer. The assay plates were prepared by addition of 50 nl per well of compound solution in 90% DMSO. […] Kinase reactions were incubated at 30° C. for 60 minutes and subsequently terminated by addition of 16 μl per well of stop solution (100 mM HEPES pH 7.5, 5% DMSO, 0.1% Caliper coating reagent, 10 mM EDTA, and 0.015% Brij35). Plates with terminated kinase reactions were transferred to the Caliper LC3000 workstations for reading. Phosphorylated and unphosphorylated peptides were separated using the Caliper microfluidic mobility shift technology. Briefly, samples from terminated kinase reactions were applied to the chip. Analytes are transported through the chip by constant buffer flow and the migration of the substrate peptide is monitored by the fluorescence signal of its label. Phosphorylated peptide (product) and unphosphorylated peptide (substrate) are separated in an electric field by their charge/mass ratio. Kinase activities were calculated from the amounts of formed phospho-peptide. […] values were determined from percent inhibition values at different compound concentrations by non-linear regression analysis.
Test compounds were dissolved in DMSO (10 mM) and transferred into 1.4 mL flat bottom or V-shaped Matrix tubes carrying a unique 2D matrix. The stock solutions were stored at […] if not used immediately. For the test procedure the vials were defrosted and identified by a scanner whereby a working sheet was generated that guided the subsequent working steps.
Compound dilutions were made in 96 well plates. This format enabled the assay of maximally 40 individual test compounds at 8 concentrations (single points) including 4 reference compounds. The dilution protocol included the production of “pre-dilution plates”, “master plates” and “assay plates”.
96 polypropylene well plates were used as pre-dilution plates. A total of 4 pre-dilution plates were prepared including 10 test compounds each on the plate positions A1-A10, one standard compound at A11 and one DMSO control at A12. All dilution steps were done on a HamiltonSTAR robot.
30 μL of individual compound dilutions including standard compound and controls of the 4 “pre-dilution plates” were transferred into a 384 “master plate” including the following concentrations 1′810, 362, 72.5, […], 14.5, 2.9, 0.58 and 0.12 μM, respectively in 90% of DMSO.
Identical “assay plates” were then prepared by pipetting […] each of compound dilutions of the “master plates” into 384-well “assay plates” by means of a HummingBird 384-channel dispenser. These plates were used directly for the assay which was performed in a total volume of 9.05 μL. This led to a final compound concentration of 10, 2.0, 0.4, 0.08, 0.016, 0.0032, 0.00064 and 0.000128 μM and a final DMSO concentration of 0.5% in the assay.

[2] = tested on: phosphorylation of BLNK in Ramos B cells; assay: Anti IgM-induced phosphorylation of BLNK in Ramos B cells; format: cell-based; details: Homo sapiens, 0.25 h, anti IgM 15 min, flow cytometry anti-BLNK (pY84)
Protocol: Anti IgM-induced phosphorylation of BLNK (BLNK=B cell linker (SLP65=SH2 domain containing leukocyte protein of 65 kDa)) in Ramos B cells: Ramos B cells in a volume of 25 μl were incubated with 25 μl of the compound solution at 2-fold the desired final concentration for 30 min. at 37° C. Then 50 μL anti IgM was added, mixed and incubated for 15 min. at 37° C. In each experiment 8-fold serial dilutions of compounds were tested. The stimulation was stopped by addition of 100 μL/well of PFA (para formaldehyde) I PBS (phosphate buffered saline) (final conc. 2% PFA) for fixation and incubated for 15 min. at 37° C., then centrifuged at 1300 rpm for 3 min and permeabilized by resuspending the cell pellet in 100 μL methanol 90% and further incubated for 30 min at 4° C. The cells were then washed and phosphoproteins were detected by flow cytometry using fluorescently labeled anti-BLNK ([…]) (BD Biosciences).

[3] = tested on: SLP-76 phosphorylation in human whole blood monocytes; assay: FcR stimulation-induced SLP-76 phosphorylation in human whole blood monocytes; format: cell-based; details: Monocyte, 5 min, anti CD32 stimulation 5 min, flow cytometry, read-out: Fc Recepor stimulation induced SLP-76 phosphorylation in human whole blood monocytes, IC50
Description: After lysis of erythrocytes and washings, the cell pellet was permeabilized with ice-cold methanol 90%. The permeabilized cells were washed and stained with anti CD14 (eBioscience) to detect monocytes and anti P-SLP76 ([…]) (BD Biosciences) and quantified by flow cytometry.

hERG channel = target: T1, hERG channel (Homo sapiens, UniProt Q12809); assay: Inhibition of the hERG channel (manual patch clamp assay); format: cell-based; details: HEK293 cells stably transfected with hERG cDNA, whole-cell patch clamp, tail current
T1 construct: host or cells: HEK293
T1 sequence (Q12809 whole entry): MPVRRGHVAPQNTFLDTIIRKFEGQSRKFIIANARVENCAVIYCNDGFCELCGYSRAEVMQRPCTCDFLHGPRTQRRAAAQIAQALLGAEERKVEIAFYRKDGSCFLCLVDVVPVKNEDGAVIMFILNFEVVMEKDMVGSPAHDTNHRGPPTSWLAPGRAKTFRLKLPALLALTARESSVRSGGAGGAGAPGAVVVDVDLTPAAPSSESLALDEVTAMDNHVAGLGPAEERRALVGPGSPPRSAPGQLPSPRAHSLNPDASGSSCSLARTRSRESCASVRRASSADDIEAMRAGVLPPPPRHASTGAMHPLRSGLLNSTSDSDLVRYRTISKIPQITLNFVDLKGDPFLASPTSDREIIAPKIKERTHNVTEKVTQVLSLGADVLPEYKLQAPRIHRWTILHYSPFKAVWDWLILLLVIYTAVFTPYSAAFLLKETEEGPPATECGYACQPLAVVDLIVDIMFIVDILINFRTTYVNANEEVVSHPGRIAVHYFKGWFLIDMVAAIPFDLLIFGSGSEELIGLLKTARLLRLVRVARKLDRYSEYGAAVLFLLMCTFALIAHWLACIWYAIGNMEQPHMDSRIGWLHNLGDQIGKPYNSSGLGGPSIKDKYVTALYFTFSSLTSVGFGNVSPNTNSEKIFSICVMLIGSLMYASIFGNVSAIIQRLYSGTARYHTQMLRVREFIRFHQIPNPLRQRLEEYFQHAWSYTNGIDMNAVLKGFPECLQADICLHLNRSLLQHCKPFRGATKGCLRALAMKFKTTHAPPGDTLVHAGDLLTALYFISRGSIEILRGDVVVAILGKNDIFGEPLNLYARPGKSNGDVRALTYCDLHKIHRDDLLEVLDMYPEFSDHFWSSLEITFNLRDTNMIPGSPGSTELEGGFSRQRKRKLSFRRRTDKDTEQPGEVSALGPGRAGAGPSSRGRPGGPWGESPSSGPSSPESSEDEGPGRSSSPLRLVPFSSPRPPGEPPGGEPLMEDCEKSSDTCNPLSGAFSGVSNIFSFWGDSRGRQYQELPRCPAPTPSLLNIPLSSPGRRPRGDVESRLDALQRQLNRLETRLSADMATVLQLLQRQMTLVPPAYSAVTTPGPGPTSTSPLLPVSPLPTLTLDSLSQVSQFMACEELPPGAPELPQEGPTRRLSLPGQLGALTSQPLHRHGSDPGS
Description: The hERG patch clamp assay was done according to standard procedures used in Genetic Toxicology and Safety Pharmacology, based on recommendations and descriptions of methods in the literature, and according to current guidelines (ICH S7B, The non clinical evaluation of the potential for delayed ventricular repolarization (QT interval prolongation) by human pharmaceuticals, 2005). The purpose of the study is to assess the effect of the test item ABC123 on tail current recorded from HEK293 cells stably transfected with hERG cDNA. The HEK293 cells, which have been stably transfected with hERG cDNA, are a model considered to be suitable for this purpose (Zhou et al., 1998). Repolarisation of cardiac ventricular myocytes is mainly due to outward potassium currents. The most important current in humans is the delayed rectifier potassium current, IK, which has both rapidly and slowly activating components (IKr and IKs) (Sanguinetti and Jurkiewicz, 1990). The human ether-a-gogo-related-gene (hERG) encodes the major protein underlying IKr. Thus, inhibition of hERG potassium channels may lead to delayed cardiac repolarisation (Sanguinetti et al., 1995). Prolongation of cardiac repolarisation is a side effect that can be associated with some drug therapies. This proarrhythmic alteration is characterised by a prolongation of the QT interval in the surface electrocardiogram and is of particular concern because it may lead to the development of polymorphic ventricular arrhythmias like torsade de pointes (for review see: Vandenberg, Walker and Campbell, 2001). […] HERG HEK (HEK293 cells stably transfected with hERG cDNA) obtained from the University of Wisconsin were used. For the experiments the cells were plated onto sterile Thermanox plastic coverslips (Nalge Nunc International) in 6-well plates. The dishes were stored in a humidified, gassed incubator. The coverslips with cells were transferred to the recording chamber and continuously superfused (at approximately 1-2 ml/min) with vehicle. The temperature of the vehicle in the bath chamber was regulated by temperature controllers to 35° C.±2.0° C. hERG currents were measured in the whole-cell patch-clamp configuration. Once a stable patch clamp configuration was achieved, recording commenced in voltage-clamp mode, with the cell initially clamped at -75 mV. hERG current was observed and recorded if a stable hERG tail current response could be induced. […] The hERG HEK293 cells were treated approximately 9 min with the test item. The following voltage protocol was applied to induce hERG currents: The step from -75 mV to +10 mV activates an outward current (i.e. current flows out of the cell) and the step from +10 mV to -40 mV produces the tail current (the tail current represents the time taken for the current to turn off). […] The leak current was recorded and subtracted by a P/3n pulse between the voltage pulses (0.1 Hz).

| Structure (SMILES) | IC50 [1] | IC50 [2] | IC50 [3] | inhibition at 9 min, 3 µM (hERG channel; at 3 uM) | inhibition at 9 min, 10 µM (hERG channel; at 10 uM) | inhibition at 9 min, 30 µM (hERG channel; at 30 uM) |
| --- | --- | --- | --- | --- | --- | --- |
| Cc1c[nH]c2c(Nc3nc(N[C@@H]4CCCC[C@@H]4N)nnc3C(N)=O)cc(F)cc12 [Example 1.2, 3-((1R,2S)-2-Amino-cyclohexylamino)-5-(5-fluoro-3-methyl-1H-indol-7-ylamino)-[1,2,4]triazine-6-carboxylic acid amide] | 0.8 nM | 63 nM | 491 nM | – | – | – |
| Cc1c[nH]c2c(Nc3nc(N[C@@H]4CCCC[C@@H]4N)nnc3C(N)=O)cccc12 [Example 1.3, 3-((1R,2S)-2-Amino-cyclohexylamino)-5-(3-methyl-1H-indol-7-ylamino)-[1,2,4]triazine-6-carboxylic acid amide] | 3.5 nM | 72 nM | 447 nM | 24 ± 3% | 37 ± 6% | 74 ± 6% |
| NC(=O)c1nnc(N[C@@H]2CCCC[C@@H]2N)nc1Nc1cccc2[nH]ccc12 [Example 1.4, 3-((1R,2S)-2-Amino-cyclohexylamino)-5-(1H-indol-4-ylamino)-[1,2,4]triazine-6-carboxylic acid amide] | 1 nM | 14 nM | 177 nM | – | – | – |
| Cn1ncc2c(Nc3nc(N[C@@H]4CCCC[C@@H]4N)nnc3C(N)=O)cccc21 [Example 2.1, 3-((1R,2S)-2-Amino-cyclohexylamino)-5-(1-methyl-1H-indazol-4-ylamino)-[1,2,4]triazine-6-carboxylic acid amide] | 12 nM | 121 nM | 509 nM | – | – | – |
| Cn1cc2c(Nc3nc(N[C@@H]4CCCC[C@@H]4N)nnc3C(N)=O)cccc2n1 [Example 2.2, 3-((1R,2S)-2-Amino-cyclohexylamino)-5-(2-methyl-2H-indazol-4-ylamino)-[1,2,4]triazine-6-carboxylic acid amide] | – | 58 nM | 394 nM | – | – | – |
| NC(=O)c1nnc(N[C@@H]2CCCC[C@@H]2N)nc1Nc1cccc2c(Cl)c[nH]c12 [Example 2.3, 3-((1R,2S)-2-Amino-cyclohexylamino)-5-(3-chloro-1H-indol-7-ylamino)-[1,2,4]triazine-6-carboxylic acid amide] | 11 nM | 393 nM | – | – | – | – |
| N#Cc1c[nH]c2c(Nc3nc(N[C@@H]4CCCC[C@@H]4N)nnc3C(N)=O)cccc12 [Example 2.4, 3-((1R,2S)-2-Amino-cyclohexylamino)-5-(3-cyano-1H-indol-7-ylamino)-[1,2,4]triazine-6-carboxylic acid amide] | 86 nM | 890 nM | – | – | – | – |
| NC(=O)c1nnc(N[C@@H]2CCCC[C@@H]2N)nc1Nc1cccc2[nH]ncc12 [Example 2.5, 3-((1R,2S)-2-Amino-cyclohexylamino)-5-(1H-indazol-4-ylamino)-[1,2,4]triazine-6-carboxylic acid amide] | 30 nM | 106 nM | 671 nM | – | – | – |
| NC(=O)c1nnc(N[C@@H]2CCCC[C@@H]2N)nc1Nc1cc(F)cc2cc[nH]c12 [Example 2.6, 3-((1R,2S)-2-Amino-cyclohexylamino)-5-(5-fluoro-1H-indol-7-ylamino)-[1,2,4]triazine-6-carboxylic acid amide] | 4.6 nM | 37 nM | 562 nM | – | – | – |
| Cn1ccc2c(Nc3nc(N[C@@H]4CCCC[C@@H]4N)cnc3C(N)=O)cccc21 [Example 3.1, 5-((1R,2S)-2-Amino-cyclohexylamino)-3-(1-methyl-1H-indol-4-ylamino)-pyrazine-2-carboxylic acid amide] | 0.5 nM | 25 nM | – | – | – | – |
| NC(=O)c1ncc(N[C@@H]2CCCC[C@@H]2N)nc1Nc1cccc2cc[nH]c12 [Example 4.1, 5-((1R,2S)-2-Amino-cyclohexylamino)-3-(1H-indol-7-ylamino)-pyrazine-2-carboxylic acid amide] | 2.7 nM | 28 nM | 311 nM | – | – | – |
| Cc1c[nH]c2c(Nc3nc(N[C@@H]4CCCC[C@@H]4N)cnc3C(N)=O)cccc12 [Example 4.2, 5-((1R,2S)-2-Amino-cyclohexylamino)-3-(3-methyl-1H-indol-7-ylamino)-pyrazine-2-carboxylic acid amide] | 1 nM | 36 nM | 596 nM | – | – | – |
